By EC50 is commonly meant the concentration at which the effect is half-maximal. The IC50 is the concentration that inhibits the measured activity by half.

The source of these data is US20240335544A1, “M6PR CELL SURFACE RECEPTOR BINDING COMPOUNDS AND CONJUGATES” (LYCIA THERAPEUTICS, INC., priority 2021, published 2024).

For one test, the target named is CI-M6PR (Homo sapiens, UniProt P11717). The experiment in a line: Human CI-M6PR binding assay (ELISA). Details: purchased R&D 6418-GR-050. The procedure: Nunc black solid bottom MaxiSorp plates were allowed to incubate overnight at 4° C. coated with 1 μg/mL of recombinant human CI-M6PR protein (R&D, 6418-GR-050) in 50 μL PBS. The next day, coating was decanted and plates were washed 3× with PBS. Wells were blocked with 350 μL of 3% BSA-PBS for 1 hour at room temperature. […] 50 μL of diluted conjugates were added to the plate and allowed to incubate at room temperature for 2 hours. After incubation, solutions in plate were decanted and washed with 350 μL of 0.05% PBS-Tween20 three times, drying the plate each wash on a clean paper towel. 50 μL of peroxidase AffiniPure Mouse Anti-Human IgG (Jackson Immuno, 209-035-088) diluted in 3% BSA-PBS to […] was added to the plate and allowed to incubate for 1 hour at room temperature in the dark. After incubation, solutions in plate were decanted and washed with 350 μL of 0.05% PBS-Tween20 3 times, drying the plate each wash on a clean paper towel. […] 50 μL of QuantaBlu solution was added to wells and allowed to incubate for 5-10 minutes at room temperature. After incubation, plates were read on a Perkin Elmer EnVision using photometric 340 and Umbelliferone 460 filter sets for excitation and emission, respectively. Data analysis and non-linear curve-fitting was performed using GraphPad Prism.
(In general: ELISA stands for enzyme-linked immunosorbent assay.)

Another test concerns Jurkat cells. Briefly: Uptake of IgE-Alexa488 target by omalizumab conjugates in Jurkat cells. To be noted: for relative cellular uptake activity of IgE-Alexa488, omalizumab conjugates of Table 15A / relative cellular uptake activity of IgE-Alexa488, omalizumab conjugates of Table 15B: 1 hour; for relative cellular uptake activity of IgE-Alexa488, omalizumab conjugates of Table 15A: FIGS. 15-17; for relative cellular uptake activity of IgE-Alexa488, omalizumab conjugates of Table 15B: FIGS. 18-21. Type of test: cell-based. As to the method:
The omalizumab conjugates of Example 142 were bound to IgE-Alexa488 (prepared according to Example 144), as follows: equal molar ratios of omalizumab (anti-IgE) conjugate and IgE-Alexa488 were added in tissue culture media for 30 minutes at room temperature. The resulting anti-IgE conjugate:IgE antibody-Alexa488 compositions were added to Jurkat cells (100 k cells/50 ul per well, n=2), and Alexa488 fluorescence levels in the cells were measured at 1 hour by flow cytometry. As the fluorescently labelled target (IgE antibody) accumulates in cells, the fluorescence presents a way to measure total intracellular uptake by cells over time.

In test [1] the target is T1, M6PR (Domains I-9, R&D Systems) (Homo sapiens, UniProt P11717).
T1 construct: with 100 nM M6PR (Domains I-9, R&D Systems) and 1 nM probe; purchased R&D Systems
Briefly: General M6PR binding assay (fluorescence polarization). To be noted: Table 16F, unconjugated compounds, 100 nM M6PR, 1 nM probe, 2 hr incubation. As to the method: M6PR binding was measured in black 96-well plates using a fluorescence polarization assay. A fluorescent probe consisting of a reference M6Pn ligand linked to Cy5 was synthesized. Test compounds were resuspended in DMSO and 3-fold serial dilutions were made at 100× final concentrations. Binding reactions were conducted in 100 μl final volume in 20 mM HEPES (pH 7.5) 100 mM NaCl 0.015% Tween-20 1% DMSO with 100 nM M6PR (Domains I-9, R&D Systems) and 1 nM probe. Fluorescence polarization was measured using Xex=620 nm, λem=688 nm on an Envision plate reader (Perkin Elmer) after 2 hr incubation time. Dose responses were conducted in duplicate and normalized to the response with DMSO (high) and 1 μM reference compound (low) on each plate. IC50 values were determined by fitting to 4-parameter curves in GraphPad Prism.
A general note: Fluorescence polarisation rises when a labelled molecule tumbles more slowly, as on binding a larger partner.

[2] abbreviates: Table 16D, conjugate, m average loading DAR 2, read-out: EC50 in M6PR binding assay for conjugates of compounds of varying multivalency.

Each structure is given as a SMILES string. “Also recorded” adds a separate entry of the source. Like-named read-outs stand apart in the source and are kept apart here. Some results are limits rather than exact numbers.

Chain of CI-M6PR (P11717 41-1365 limits assumed): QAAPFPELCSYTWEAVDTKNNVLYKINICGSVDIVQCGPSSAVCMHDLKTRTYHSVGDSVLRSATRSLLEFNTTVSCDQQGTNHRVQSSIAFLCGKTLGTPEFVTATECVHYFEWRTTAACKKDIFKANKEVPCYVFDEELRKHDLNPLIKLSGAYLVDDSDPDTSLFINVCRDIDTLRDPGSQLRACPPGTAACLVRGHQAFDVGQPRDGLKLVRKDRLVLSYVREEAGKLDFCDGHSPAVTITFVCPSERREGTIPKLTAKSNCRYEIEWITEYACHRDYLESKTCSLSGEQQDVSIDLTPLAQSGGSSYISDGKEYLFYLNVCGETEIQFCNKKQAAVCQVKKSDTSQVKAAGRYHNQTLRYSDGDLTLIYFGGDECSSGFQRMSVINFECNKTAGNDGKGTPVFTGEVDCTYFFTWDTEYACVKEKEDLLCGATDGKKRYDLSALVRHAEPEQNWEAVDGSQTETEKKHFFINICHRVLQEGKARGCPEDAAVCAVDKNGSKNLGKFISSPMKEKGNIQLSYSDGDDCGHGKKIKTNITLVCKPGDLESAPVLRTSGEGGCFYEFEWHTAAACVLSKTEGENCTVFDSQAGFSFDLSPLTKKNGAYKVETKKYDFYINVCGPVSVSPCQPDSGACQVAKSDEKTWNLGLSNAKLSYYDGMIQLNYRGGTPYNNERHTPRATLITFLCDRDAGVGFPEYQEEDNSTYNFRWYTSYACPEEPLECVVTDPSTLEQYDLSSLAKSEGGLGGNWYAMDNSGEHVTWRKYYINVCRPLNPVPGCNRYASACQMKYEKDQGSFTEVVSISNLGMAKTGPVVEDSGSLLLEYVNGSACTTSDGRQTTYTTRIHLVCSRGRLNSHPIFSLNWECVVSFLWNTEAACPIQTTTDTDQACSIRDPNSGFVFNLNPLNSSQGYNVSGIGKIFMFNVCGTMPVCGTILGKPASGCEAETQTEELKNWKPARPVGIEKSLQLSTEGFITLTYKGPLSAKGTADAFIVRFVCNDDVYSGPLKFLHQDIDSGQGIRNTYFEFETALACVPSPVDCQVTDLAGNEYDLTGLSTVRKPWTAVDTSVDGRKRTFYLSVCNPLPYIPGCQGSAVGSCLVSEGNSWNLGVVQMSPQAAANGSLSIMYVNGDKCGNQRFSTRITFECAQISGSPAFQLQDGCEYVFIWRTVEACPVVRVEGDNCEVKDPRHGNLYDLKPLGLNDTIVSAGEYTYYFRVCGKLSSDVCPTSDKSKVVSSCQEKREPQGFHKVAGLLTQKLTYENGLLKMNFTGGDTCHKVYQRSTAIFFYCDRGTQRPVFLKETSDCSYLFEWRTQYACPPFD
T1 sequence (P11717 41-1365 limits assumed): as above

As for `Cc1cc(NC(=O)NCCCCc2cn(CCOCCOCCOCCOCCC(=O)Oc3c(F)c(F)c(F)c(F)c3F)nn2)ccc1O[C@H]1O[C@H](CCP(=O)(O)O)[C@@H](O)[C@H](O)[C@@H]1O` [545 (I-87)], on CI-M6PR (Table 16C, cetuximab (anti-EGFR) conjugate, average loading DAR 9.2, read-out: EC50 in M6PR binding assay), the EC50 amounted to 0.3 nM.

As to `O=C(CCOCCOCCOCCOCCn1cc(CCCCNC(=S)Nc2ccc(O[C@H]3O[C@H](CCS(=O)(=O)O)[C@@H](O)[C@H](O)[C@@H]3O)cc2)nn1)Oc1c(F)c(F)c(F)c(F)c1F` [556 (1-104)], the “relative cellular uptake activity of IgE-Alexa488, omalizumab conjugates of Table 15A” value (“relative cellular uptake activity … of Table 15A” for short) in the test on Jurkat cells was “low activity”.

As for `O=C(CCOCCOCCOCCN(CCOCCOCCOCCn1cc(CCCCNC(=S)Nc2ccc(O[C@H]3O[C@H](CCP(=O)(O)O)[C@@H](O)[C@H](O)[C@@H]3O)cc2)nn1)CCOCCOCCOCCn1cc(CCCCNC(=S)Nc2ccc(O[C@H]3O[C@H](CCP(=O)(O)O)[C@@H](O)[C@H](O)[C@@H]3O)cc2)nn1)Oc1c(F)c(F)c(F)c(F)c1F` [704 (I-40)], the EC50 at CI-M6PR (setting [2]) is 0.66 nM; at CI-M6PR (Table 16D, conjugate, m average loading DAR 7, read-out: EC50 in M6PR binding assay for conjugates of compounds of varying multivalency), 0.2 nM.

`O=C(CCCn1cc(CCCCNC(=S)Nc2ccc(O[C@H]3O[C@H](CCP(=O)(O)O)[C@@H](O)[C@H](O)[C@@H]3O)cc2)nn1)N[C@@H](CCCCn1cc(CCCCNC(=S)Nc2ccc(O[C@H]3O[C@H](CCP(=O)(O)O)[C@@H](O)[C@H](O)[C@@H]3O)cc2)nn1)C(=O)N[C@@H](CCCCn1cc(CCCCNC(=S)Nc2ccc(O[C@H]3O[C@H](CCP(=O)(O)O)[C@@H](O)[C@H](O)[C@@H]3O)cc2)nn1)C(=O)N[C@@H](CCCCn1cc(CCCCNC(=S)Nc2ccc(O[C@H]3O[C@H](CCP(=O)(O)O)[C@@H](O)[C@H](O)[C@@H]3O)cc2)nn1)C(=O)NCCOCCOCCOCCOCCC(=O)Oc1c(F)c(F)c(F)c(F)c1F` [763 (I-52)]: on CI-M6PR (setting [2]), the EC50 was 0.3 nM.

Take `C#CCCCCNC(=O)Nc1ccc(O[C@H]2O[C@H](CCP(=O)(O)O)[C@@H](O)[C@H](O)[C@@H]2O)cc1` [Compound 38C]: the IC50 in test [1] lay within 100 to 500 nM.

In the case of `O=C(NCCCCc1cn(CCOCCOCCOCCOCCC(=O)Oc2c(F)c(F)c(F)c(F)c2F)nn1)Nc1ccc(S[C@H]2O[C@H](CCP(=O)(O)O)[C@@H](O)[C@H](O)[C@@H]2O)cc1` [Compound 552], the “relative cellular uptake activity of IgE-Alexa488, omalizumab conjugates of Table 15B” value (“relative cellular uptake activity … of Table 15B” for short) in the test with Jurkat cells is “comparable activity to an 0-glycoside (520 (I-7) with m=8); also recorded: more activity when at m=6 loading versus m=4 loading”. Further, the “relative cellular uptake activity of IgE-Alexa488, omalizumab conjugates of Table 19” value with Jurkat cells (FIG. 23, entire dose response range) is “comparable by less activity that the conjugate of α-O-glycoside (529)”.

In the case of `O=C(NCCCCc1cn(CCOCCOCCOCCOCCC(=O)Oc2c(F)c(F)cc(F)c2F)nn1)Nc1ccc(O[C@H]2O[C@H](CCP(=O)(O)O)[C@@H](O)[C@H](O)[C@@H]2O)cc1` [Compound 558], the “relative cellular uptake activity … of Table 15A” value in the test on Jurkat cells is “active in this assay, although less active in comparison to the corresponding analog containing a phosphonate hydrophilic head group (529 (I-38))”.

On to `O=C(CCOCCOCCOCCOCCn1cc(CCCCNC(=S)Nc2ccc(O[C@H]3O[C@H](CC(C(=O)O)C(=O)O)[C@@H](O)[C@H](O)[C@@H]3O)cc2)nn1)Oc1c(F)c(F)c(F)c(F)c1F` [Compound 559], for which the EC50 at CI-M6PR (Table 16E, conjugate, m average DAR 9, read-out: EC50 in M6PR binding assay for conjugates of monovalent compounds of varying linker length and loading) amounted to 3.36 nM.

As to `CO[C@H]1O[C@H](COCCCCCc2cn(CCOCCOCCOCCOCCC(=O)Oc3c(F)c(F)c(F)c(F)c3F)nn2)[C@@H](O)[C@H](O)[C@@H]1O[C@H]1O[C@H](CCP(=O)(O)O)[C@@H](O)[C@H](O)[C@@H]1O` [Compound 659], in the test with Jurkat cells, the “relative cellular uptake activity … of Table 15B” value is “potent and comparable activity to conjugate of a conjugate of compound 520 (I-7)”.

Regarding `CO[C@H]1OC(c2cn(CCOCCOCCOCCOCCOCCOCCC(=O)Oc3c(F)c(F)c(F)c(F)c3F)nn2)[C@@H](O)[C@H](O)[C@@H]1O[C@H]1O[C@H](CCP(=O)(O)O)[C@@H](O)[C@H](O)[C@@H]1O` (some centres unmarked) [Compound 660], the “relative cellular uptake activity … of Table 15B” value with Jurkat cells was “potent and comparable activity to conjugate of a conjugate of compound 520 (I-7)”.

Regarding `O=C(CCOCCOCCOCCOCCOCCOCCOCCOCc1cn([C@H]2O[C@H](CCP(=O)(O)O)[C@@H](O)[C@H](O)[C@@H]2O)nn1)ON1C(=O)CCC1=O` [Compound 664], in the test with Jurkat cells, the “relative cellular uptake activity … of Table 15B” value is “minimal activity”.

Consider `O=C(NCCCCc1cn(CCOCCOCCOCCOCCC(=O)Oc2c(F)c(F)c(F)c(F)c2F)nn1)Nc1ccc(O[C@H]2C[C@H](CCP(=O)(O)O)[C@@H](O)[C@H](O)[C@@H]2O)cc1` [Compound 665], for which the “relative cellular uptake activity … of Table 15A” value in the test on Jurkat cells is reported as “low activity”.

As to `O=C(CCOCCOCCOCCN(CCOCCOCCOCCn1cc(CCO[C@H]2O[C@H](CCP(=O)(O)O)[C@@H](O)[C@H](O)[C@@H]2O)nn1)CCOCCOCCOCCn1cc(CCO[C@H]2O[C@H](CCP(=O)(O)O)[C@@H](O)[C@H](O)[C@@H]2O)nn1)Oc1c(F)c(F)c(F)c(F)c1F` [Compound 716], the “relative cellular uptake activity … of Table 15A” value in the test with Jurkat cells was “inferior uptake to 520 (I-7) with m=8”.

Turning to `CC(=O)N[C@@H](CCCCn1cc(CCCCNC(=O)Nc2ccc(O[C@H]3O[C@H](CCP(=O)(O)O)[C@@H](O)[C@H](O)[C@@H]3O)cc2)nn1)C(=O)N[C@@H](CCCCn1cc(CCCCNC(=O)Nc2ccc(O[C@H]3O[C@H](CCP(=O)(O)O)[C@@H](O)[C@H](O)[C@@H]3O)cc2)nn1)C(=O)NCCOCCOCCOCCOCCC(=O)O` [Compound 769], in test [1], the IC50 fell in the range of 100 to 500 nM.

In test [1], `CC(=O)N[C@@H](CCCCn1cc(CCCCNC(=O)Nc2ccc(O[C@H]3O[C@H](CCP(=O)(O)O)[C@@H](O)[C@H](O)[C@@H]3O)cc2)nn1)C(=O)N[C@@H](CCCCn1cc(CCCCNC(=O)Nc2ccc(O[C@H]3O[C@H](CCP(=O)(O)O)[C@@H](O)[C@H](O)[C@@H]3O)cc2)nn1)C(=O)NCCOCCOCCOCCOCCC(=O)N[C@@H](CCCCn1cc(CCCCNC(=O)Nc2ccc(O[C@H]3O[C@H](CCP(=O)(O)O)[C@@H](O)[C@H](O)[C@@H]3O)cc2)nn1)C(=O)N[C@@H](CCCCn1cc(CCCCNC(=O)Nc2ccc(O[C@H]3O[C@H](CCP(=O)(O)O)[C@@H](O)[C@H](O)[C@@H]3O)cc2)nn1)C(=O)NCCOCCOCCOCCOCCC(=O)O` [Compound 770] yielded a 50% inhibitory concentration (IC50) of at most 50 nM.

In test [1], `CC(=O)N[C@@H](CCCCn1cc(CCCCNC(=O)Nc2ccc(O[C@H]3O[C@H](CCP(=O)(O)O)[C@@H](O)[C@H](O)[C@@H]3O)cc2)nn1)C(=O)NCCOCCOCCOCCOCCC(=O)O` [Compound 771] registered an IC50 of 100 to 500 nM.

In test [1], `O=C(O)CCOCCOCCOCCOCCNC(=O)[C@H](CCCCn1cc(CCCCNC(=O)Nc2ccc(O[C@H]3O[C@H](CCP(=O)(O)O)[C@@H](O)[C@H](O)[C@@H]3O)cc2)nn1)NC(=O)[C@H](CCCCn1cc(CCCCNC(=O)Nc2ccc(O[C@H]3O[C@H](CCP(=O)(O)O)[C@@H](O)[C@H](O)[C@@H]3O)cc2)nn1)NC(=O)[C@H](CCCCn1cc(CCCCNC(=O)Nc2ccc(O[C@H]3O[C@H](CCP(=O)(O)O)[C@@H](O)[C@H](O)[C@@H]3O)cc2)nn1)NC(=O)CCCn1cc(CCCCNC(=O)Nc2ccc(O[C@H]3O[C@H](CCP(=O)(O)O)[C@@H](O)[C@H](O)[C@@H]3O)cc2)nn1` [Compound 772] returned a half-maximal inhibitory concentration (IC50) of 50 to 100 nM.

For `O=C(CCCn1cc(CCCCNC(=S)Nc2ccc(O[C@H]3O[C@H](CCP(=O)(O)O)[C@@H](O)[C@H](O)[C@@H]3O)cc2)nn1)N[C@@H](CCCCn1cc(CCCCNC(=S)Nc2ccc(O[C@H]3O[C@H](CCP(=O)(O)O)[C@@H](O)[C@H](O)[C@@H]3O)cc2)nn1)C(=O)N[C@@H](CCCCn1cc(CCCCNC(=S)Nc2ccc(O[C@H]3O[C@H](CCP(=O)(O)O)[C@@H](O)[C@H](O)[C@@H]3O)cc2)nn1)C(=O)N[C@@H](CCCCn1cc(CCCCNC(=S)Nc2ccc(O[C@H]3O[C@H](CCP(=O)(O)O)[C@@H](O)[C@H](O)[C@@H]3O)cc2)nn1)C(=O)NCCOCCOCCOCCOCCC(=O)Oc1c(F)c(F)c(F)c(F)c1F` [Compound I-52], at CI-M6PR (Table 16B, antibody conjugate, average loading DAR 6, read-out: EC50 in M6PR binding assay), the concentration giving a half-maximal response (EC50) turned out to be 0.28 nM.
